For 15 molecules, IC50 results are on record in US8916561B2, “Substituted quinoxaline compounds for the inhibition of PASK” (BioEnergenix, LLC, priority 2011, dated 2014).

By IC50 is commonly meant the point on the concentration scale where inhibition reaches its midpoint.

Assay type in all cases: biochemical
One experiment addresses T1, PASK (Invitrogen) (Homo sapiens, UniProt Q96RG2).
T1 construct: IC50 Kinase Domain; purchased Invitrogen
Briefly: PAS Kinase FRET Assay. The conditions noted are these: TR-FRET (665 nm/615 nm), Ulight-peptide substrate; read-out: IC50 Kinase Domain. From the text:
The aim of the FRET assay is to determine the inhibition potential of test compounds on targeted kinase. This assay platform provides a homogenous screening method for measuring kinase activity by quantitating the amount of phospho-substrate in solution following a kinase reaction.
In the presence of kinase and ATP, the Ulight-peptide is phosphorylated and captured by an anti-phospho-substrate antibody, which brings the Eu chelate donor and Ulight acceptor dyes into close proximity. Upon excitation at 340 nm, the Eu chelate transfers its energy to the Ulight dye, resulting in a fluorescent light emission at 665 nm.
Titration of kinase at 1 mM ATP was achieved via the following protocol. After making serial three-fold dilutions of PASK (Invitrogen) in reaction buffer across the plate; 5 μl of kinase dilution and 5 μl substrate/ATP mix were added to the wells of the white Optiplate-384 (PerkinElmer). The contents of the plate were incubated at RT for 1 h. The reaction was stopped by adding 5 μl of stop solution to each test well followed by mixing and incubation at RT for 10 minutes. 5 μl of detection mix (detection antibody diluted in detection butler) was added; the contents of the plate were mixed and then incubated in the dark for 1 hour at RT. The signal was recorded at TR-FRET mode (665 nm/615 nm), The results were graphed to calculate the EC50.
Titration of ATP at the EC50 concentration of kinase to determine ATP Km,app. was performed using the following method. After making serial dilutions of ATP (Invitrogen), 5 μl of ATP dilution and 5 μl substrate/kinase mix were added to the wells of the white Optiplate-384 (PerkinElmer). The contents of the plate were and incubated at RT for 1 h. The reaction was stopped by adding 5 μl of stop solution to each test well followed by mixing and incubation at RT for 10 minutes. 5 μl of detection mix (detection antibody diluted in detection buffer) was added; the contents of the plate were mixed and then incubated in the dark for 1 hour at RT. The signal was recorded at TR-FRET mode (665 nm/615 nm). The results were graphed to calculate the EC50 as the ATP Km,app.
Compound screening was done via the following method. 10 mM stock solution of test compound in DMSO was prepared by dissolving test compound in DMSO at RT for 1 hour, and then sonicating at 100% output for 8 minutes. If compound is not soluble under this condition, it was diluted to 3 mM. Kinase reaction buffer was prepared containing 10 mM MgCl2, 50 mM HEPES, 1 EGTA, 0.01% TWEEN-20, 2 mM WT. Serial dilutions of the test compounds were prepared at 4× final assay concentrations using Freedom EVO200® dispensing system as follows: 12×10^−5M, 4×10^−5 M, 1.33×10^−5M, 4.44×10^−6 M. 1.48×10^−6 M, 4.92×10^−7 M, 1.65×10^−7 M, […], 1.82×10^−8 M, 6.09×10^−9, 2.03×10^−9 M. Test compounds (2.5 μl at 4× the final assay concentration) was added to wells using Freedom EVO200® dispensing system. As a positive control, 2.5 μl of positive compound was added to assay wells, and 2.5 μl of DMSO to assay wells as vehicle control. Kinase solution was prepared in reaction buffer at 2× final assay concentration. Kinase solution (5 μl) was added to each well of the assay plate. The substrate and ATP solution was prepared in kinase reaction buffer at 4× final assay concentration. The kinase reaction was started by adding 2.5 μl of substrate+ATP mix solution to each well of the assay plate. The plate is mixed on a plate shaker; then covered and allowed to react for 2 hours in the dark at 25° C. without shaking. The reaction was stopped by adding 5 μl of stop solution to each test well followed by mixing and incubation at RT for 10 minutes in the dark. 5 μl of detection mix (detection antibody diluted in detection buffer) was added; the contents of the plate were mixed and then incubated in the dark for 1 hour at RT. The signal was recorded at TR-FRET mode (665 nm/615 nm).

The next experiment concerns the target T2, PASK (UniProt #Q96RG2; human recombinant N-terminal GST tagged construct, residues 879-1323) (Homo sapiens, UniProt Q96RG2).
T2 construct: human recombinant N-terminal GST tagged construct, residues 879-1323; GST (N); host or cells: insect cells
The experiment in a line: PASK ATP Radiochemical Assay. The conditions noted are these: 33P-ATP radiochemical assay, Myelin Basic Protein substrate; read-out: IC50 Kinase Domain. The protocol:
Purified PASK (UniProt #Q96RG2; human recombinant N-terminal GST tagged construct, residues 879-1323) from insect cells (final concentration 5 nM) is added to freshly prepared Base Reaction Buffer containing 20 mM HEPES (pH 7.5), 10 mM MgCl2, 1 mM EGTA, 0.02% Brij35, 0.02 mg/ml BSA, 0.1 mM Na3VO4, 2 mM DTT, 1% DMSO and Myelin Basic Protein (20 μM final). Test compounds in DMSO are then added and the mixture, followed by delivery of ^33P-ATP (specific activity 0.01 μCi/μl final) to initiate the reaction. The kinase reaction is incubated for 120 min at room temperature. The entire reaction mixture is washed through onto a P81 Phosphocellulose paper and washed three times for 10 minutes in 75 mM phosphoric acid and once in methanol prior to drying and scintillation counting.

Another experiment deals with hPASK (Homo sapiens, UniProt Q96RG2). Briefly: PAS Kinase Luminescence Assay (Kinase-Glo). The conditions noted are these: MBP substrate, read-out: IC50 Kinase Domain. Set-up: IC50 Kinase Domain; host or cells: insect cells. The protocol:
One assay for purified hPASK activity utilizes the Kinase-Glo Luminescent Kinase Assay (Promega), which quantifies the amount of ATP remaining in solution following kinase reaction. The assay is carried out in a 96-well plate format and is performed by adding a volume of Kinase-Glo Reagent (Promega, catalog #V3771) equal to the volume of solution in the well of a completed kinase reaction. Kinase-Glo reagent contains Luciferase and its substrate. After addition to a kinase reaction it allows to measure luminescence. The amount of ATP left in solution at the time of Kinase-Glo Plus addition is directly proportional to the luminescence that is measured in each well, and inversely correlated with kinase activity.
Purified hPASK from insect cells (0.02 μg) is added to a 50 μL reaction mix containing 40 mM HEPES (pH 7.0), 100 mM KCl, 5 mM MgCl2, 1 mM DTT and 1 μg of MBP protein. Inhibitory compounds are then added and the mixture is incubated for 10 min at 25° C. before adding 5 μL of ATP (at desired concentration). The reaction is allowed to proceed at 25° C. for 1 hour before adding 50 μL of Kinase-Glo reagent. The luminescence is measured as soon as 10 minutes after Kinase-Glo reagent is added.
(In Kinase-Glo more light means more ATP remaining.)

T2 sequence (Q96RG2 879-1323, stated change not applied): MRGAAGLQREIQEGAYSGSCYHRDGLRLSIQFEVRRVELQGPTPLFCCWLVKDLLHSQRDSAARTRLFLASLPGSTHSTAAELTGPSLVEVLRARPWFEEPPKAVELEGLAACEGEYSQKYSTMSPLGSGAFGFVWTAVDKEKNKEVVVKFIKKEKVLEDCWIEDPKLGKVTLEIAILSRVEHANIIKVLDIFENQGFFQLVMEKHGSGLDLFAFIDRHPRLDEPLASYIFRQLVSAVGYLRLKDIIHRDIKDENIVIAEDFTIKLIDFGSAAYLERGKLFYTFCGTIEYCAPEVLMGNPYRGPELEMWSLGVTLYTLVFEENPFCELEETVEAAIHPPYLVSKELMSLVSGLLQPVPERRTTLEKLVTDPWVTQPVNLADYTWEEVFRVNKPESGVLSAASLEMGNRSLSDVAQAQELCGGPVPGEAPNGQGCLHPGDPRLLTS
hPASK, sequence (Q96RG2 999-1251 limits assumed): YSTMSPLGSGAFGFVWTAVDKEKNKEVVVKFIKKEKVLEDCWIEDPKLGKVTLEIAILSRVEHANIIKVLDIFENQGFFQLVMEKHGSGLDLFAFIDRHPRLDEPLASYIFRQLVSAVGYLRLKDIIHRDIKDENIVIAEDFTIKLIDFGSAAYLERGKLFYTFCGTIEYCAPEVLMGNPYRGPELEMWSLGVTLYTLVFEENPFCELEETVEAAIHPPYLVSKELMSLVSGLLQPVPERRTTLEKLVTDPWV
T1 sequence (Q96RG2 999-1251 limits assumed): as above

With `Cc1[nH]c2ccc(-c3nc4ccc(-c5nnn[nH]5)cc4nc3N(C)C(C)C)cc2c1C(=O)C(F)(F)F` [Example 24, 2,2,2-Trifluoro-1-(5-(3-(isopropyl(methyl)amino)-6-(1H-tetrazol-5-yl)quinoxalin-2-yl)-2-methyl-1H-indol-3-yl)ethanone], on PASK (Invitrogen), the concentration for half-maximal inhibition (IC50) is not above 10 µM.
For the molecule `Fc1ccc(-c2nc3ccc(-c4nnn[nH]4)cc3nc2-c2ccc(F)cc2)cc1` [Example 25, 2,3-Bis(4-fluorophenyl)-6-(1H-tetrazol-5-yl) quinoxaline], the concentration for half-maximal inhibition (IC50) on PASK is not above 10 µM.
Regarding `COc1ccc(-c2nc3ccc(-c4nnn[nH]4)cc3nc2-c2ccc(OC)cc2)cc1` [Example 26, 2,3-Bis(4-methoxyphenyl)-6-(1H-tetrazol-5-yl)quinoxaline], the IC50 on PASK (Invitrogen) and at PASK was not above 10 µM throughout.
Take `CCc1ccc(-c2nc3ccc(-c4nnn[nH]4)cc3nc2-c2ccc(CC)cc2)cc1` [Example 27, 2,3-Bis(4-ethylphenyl)-6-(1H-tetrazol-5-yl)quinoxaline]: the 50% inhibitory concentration (IC50) on PASK was not above 10 µM.
Regarding `CC(C)N(C)c1nc2cc(-c3nn[nH]n3)ccc2nc1-c1ccc(F)cc1` [Example 28, 3-(4-Fluorophenyl)-N-isopropyl-N-methyl-7-(2H-tetrazol-5-yl)quinoxalin-2-amine], the IC50 at PASK (Invitrogen) and on PASK was not above 10 µM throughout.
With `C[C@H]1CCCN1c1nc2cc(-c3nn[nH]n3)ccc2nc1-c1ccc(F)cc1` [Example 29, (S)-2-(4-Fluorophenyl)-3-(2-methylpyrrolidin-1-yl)-6-(2H-tetrazol-5-yl)quinoxaline], the IC50 on PASK (Invitrogen) and at PASK was not above 10 µM each time.
For the molecule `CC[C@@H](C)N(C)c1nc2cc(-c3nnn[nH]3)ccc2nc1-c1ccc(F)cc1` [Example 30, (R)—N-sec-Butyl-3-(4-fluorophenyl)-N-methyl-7-(1H-tetrazol-5-yl)quinoxalin-2-amine], at PASK (Invitrogen), the IC50 was not above 10 µM.
Turning to `CC(C)N(C)c1nc2cc(-c3nnn[nH]3)ccc2nc1-c1ccc2[nH]ncc2c1` [Example 31, 3-(1H-Indazol-5-yl)-N-methyl-N-(propan-2-yl)-7-(1H-tetrazol-5-yl)quinoxalin-2-amine], the IC50 on PASK (Invitrogen) was not above 10 µM.
As to `Cc1cc2cc(-c3nc4ccc(-c5nnn[nH]5)cc4nc3N(C)C(C)C)ccc2[nH]1` [Example 32, N-Isopropyl-N-methyl-3-(2-methyl-1H-indol-5-yl)-7-(1H-tetrazol-5-yl)quinoxalin-2-amine], the IC50 at PASK (Invitrogen) and at PASK was not above 10 µM in each case.
As for `CC(C)N(C)c1nc2cc(-c3nnn[nH]3)ccc2nc1-c1cc2cc(F)ccc2o1` [Example 33, 3-(5-Fluorobenzofuran-2-yl)-N-methyl-N-(propan-2-yl)-7-(1H-tetrazol-5-yl)quinoxalin-2-amine], the IC50 on PASK (Invitrogen) is not above 10 µM.
For `COc1ccc(-c2nc3ccc(NS(C)(=O)=O)cc3nc2-c2ccc(OC)cc2)cc1` [Example 34, N-(2,3-Bis(4-methoxyphenyl)quinoxalin-6-yl)methanesulfonamide], the IC50 on hPASK and on PASK was not above 10 µM in each case.
For `COc1ccc(-c2nc3ccc(S(N)(=O)=O)cc3nc2-c2ccc(OC)cc2)cc1` [Example 35, 2,3-Bis(4-methoxyphenyl)quinoxaline-6-sulfonamide], at hPASK, the IC50 is not above 10 µM.
Same read-out and setting: in the case of `CNS(=O)(=O)c1ccc2nc(-c3ccc(OC)cc3)c(-c3ccc(OC)cc3)nc2c1` [Example 36, 2,3-Bis(4-methoxyphenyl)-N-methylquinoxaline-6-sulfonamide] it was more than 10 µM.
The same measure, in the same setting: the same measure for `COc1ccc(-c2nc3ccc(S(=O)(=O)N4CCOCC4)cc3nc2-c2ccc(OC)cc2)cc1` [Example 37, 4-(2,3-Bis(4-methoxyphenyl)quinoxalin-6-ylsulfonyl)morpholine]: not above 10 µM.
`COc1ccc(-c2nc3ccc(S(=O)(=O)O)cc3nc2-c2ccc(OC)cc2)cc1` [Example 38, 2,3-Bis(4-methoxyphenyl)quinoxaline-6-sulfonic acid]: on PASK (Invitrogen), the IC50 was not above 10 µM.
